Laboratory results reported in patent US20240207211A1, “COMPOSITION FOR PROMOTING BONE FORMATION OR TREATING BONE DISEASE BY ACTING ON OSTEOBLAST MITOCHONDRIA” (SEOUL NATIONAL UNIVERSITY R&DB FOUNDATION, priority 2021, published 2024).

Experiments:
Type in all cases: cell-based, mouse
osteoblast mitochondria = assay: Osteoblast fluorescence imaging of mitochondrial morphology (fission, donut-shaped mitochondria); details: osteoblasts, 5 days differentiation, siRNA 30 nM, plasmid 1 μg/mL, bongkrekic acid 40 μM; for formation of donut-shaped mitochondria (confocal images, FIGS. 1A to 1C) / mitochondrial fission (confocal images, FIGS. 1A to 1C): versus control; for mitochondrial fission (quantitative analysis, Zeiss Zen 3.1, FIGS. 1D and 1E) / number of donut-shaped mitochondria (quantitative analysis, FIGS. 1D and 1E): versus respective control
Experimental: To confirm changes in the morphology of osteoblast mitochondria, transgenic mice were prepared to express green fluorescent protein (GFP) specifically in the mitochondrial matrix. Specifically, lgs1^CKI-mitoGFP/CKI-mitoGFP knock-in C57BL/6 female mice were provided by Jeremy Nathans (Johns Hopkins University School of Medicine, MD), Col1a1-Cre male mice were provided by the Korea Research Institute of Bioscience and Biotechnology, and Col1a1-Cre was prepared to be expressed in these mice using the 2.3 kb murine Col1a1 promoter. By mating the prepared C57BL/6 female transgenic mouse with the Col1a1-Cre male mouse, newborn transgenic mice (Col1a1-Cre; Igs1^CKI-mito-GFP/+) that conditionally express GFP only in the mitochondria of osteoblasts were prepared. All animal studies were approved by the Seoul National University Institutional Animal Care and Use Committees.
The skull cells of the prepared transgenic mice that express GFP conditionally only in the mitochondria were treated with 0.25% trypsin (Gibco) for 10 minutes, incubated in 2 mg/mL type 2 collagenase (Worthington) for 30 minutes, and in fresh type 2 collagenase for another 60 minutes. The cells separated from the bone tissue were collected by centrifugation at 1300 rpm for 3 minutes, and the cells were placed on serum and centrifuged to remove debris. To separate living osteoblasts that express GFP in mitochondria, they were stained with 7AAD (Bio-Legend) for 10 minutes (only dead cells were stained) and a flow cytometry technique (Fluorescence-activated cell sorting, FACS) was used.
The osteoblasts extracted in Example 1 were induced to be differentiated in a medium composed of alpha MEM (Minimum Essential Media, Hyclone) supplemented with 10% fetal bovine serum (Gibco) and 100 U/mL penicillin-streptomycin (Gibco) for 5 days. Specifically, the differentiation medium is composed of alpha MEM with 50 μg/mL ascorbic acid (Amreasco), 5 mM beta-glycerophosphate (Sigma), 10% fetal bovine serum (Gibco), and 100 U/mL penicillin-streptomycin (Gibco). Osteoblast differentiation was induced for 5 days.
Short interfering RNA (siRNA) that inhibits the expression of the Opa1 (dynamin-like 120 kDa protein) gene, which induces mitochondrial fusion, and the Fis1 (Mitochondrial fission 1 protein) gene, which induces mitochondrial fission (siOpa1, siFis1, respectively) was transfected into 300,000 osteoblasts per 1 mL at 30 nM each at the same time as differentiation induction using Lipofectamine RNAiMAX Reagent (Invitrogen), and to increase mitochondrial fission, the pCMV-Fis1 plasmid (Korea Human Gene Bank) was transfected into 300,000 osteoblasts per mL at 1 μg/mL at the same time as differentiation induction using TransIT®-LT1 Transfection Reagent (Mirus) to overexpress the Fis1 gene. In addition, the osteoblasts prepared above were treated simultaneously with differentiation with Tris solution-based bongkrekic acid (Sigma, B6179, USA) at a concentration of 40 μM. As a control for the siRNA, osteoblasts were prepared by transfecting the control siRNA in substantially the same manner as the siRNA; as a control for the plasmid, osteoblasts were prepared by transfecting the pCMV-SPORT6 empty vector plasmid into which no gene was inserted in substantially the same manner as the pCMV-Fis1 plasmid; and as a control for the bongkrekic acid, osteoblasts treated with 0.01M Tris solution were prepared. The siRNAs were purchased from Bioneer, Korea and transfected using Lipofectamine RNAimax (Invitrogen, USA) according to the manufacturer's instructions, and specific information on the siRNAs is shown in Table 1 below.
The pCMV-Fis1 plasmid containing full-length mouse Fis1 cDNA (ID: mMU002771) was purchased from the Korea Human Gene Bank, and was transfected into osteoblasts using TransIT-LT1 transfection reagent (Mirus Bio, USA) according to the manufacturer's instructions. […]

Alp1 = assay: qRT-PCR of osteogenic marker Alp1 in osteoblasts; details: 5 days differentiation, siRNA 30 nM, plasmid 1 μg/mL, bongkrekic acid 40 μM, normalized to 18S rRNA, versus respective control
Experimental: (§1) The osteoblasts extracted in Example 1 were transfected with 30 nM of siOpa1, siFis1, and 1 μg/mL of pCMV-Fis1 plasmids, respectively, in substantially the same manner as in Example 2-1, and separate osteoblasts were treated with 40 μM bongkrekic acid, and additionally, the osteoblasts extracted in Example 1 were transfected with 30 nM siBax, which is an siRNA of Bax (Bcl-2-associated X), and 1 μg/mL pCMV-Bax plasmid (Korea Human Gene Bank, ID: mMU001857), respectively, and differentiation of the osteoblasts was induced for 5 days in a medium consisting of alpha MEM (Minimum Essential Media, Hyclone) supplemented with 10% fetal bovine serum (Gibco) and 100 U/mL of penicillin-streptomycin (Gibco) of Example 2-1. As a control for the siRNA, osteoblasts were prepared by transfecting the control siRNA of Example 2-1 in substantially the same manner as the siRNA; as a control for the plasmid, osteoblasts were prepared by transfecting the pCMV-SPORT6 empty vector plasmid into which no gene was inserted in substantially the same manner as the pCMV-Fis1 plasmid; and as a control for the bongkrekic acid, osteoblasts treated with 0.01M Tris solution were prepared.
(§2) qRT-PCR was performed to evaluate the gene expression level of the osteoblasts that underwent ALP staining in Example 3-2. Total RNA was extracted from the cells using QIAzol Lysis Reagent (Qiagen, Germany) and RNeasy Mini Kit (Qiagen, Germany), and cDNA was prepared using PrimeScript RT Reagent Kit (Takara, Japan) according to the manufacturer's instructions. Quantitative RT-PCR was performed using TB Green Premix Ex Taq II (Takara, Japan) and StepOnePlus Real-Time PCR system (Applied Biosystems, USA). Relative gene expression was determined using standard 2(−ΔΔCt) calculations with normalization to 18S rRNA, and information on the primers used is specifically shown in Table 3 below.

osteoblasts = assay: Alkaline phosphatase (ALP) staining of differentiation-induced osteoblasts; details: 5 days differentiation, siRNA 30 nM, plasmid 1 μg/mL, bongkrekic acid 40 μM, versus respective control
Experimental: as §1
To confirm the osteogenic activity of the osteoblasts differentiation-induced in Example 3-1, staining of alkaline phosphatase (ALP), an osteogenic marker, was performed and observed. Specifically, 1 mg of Naphthol AS-MX phosphate (Sigma) was dissolved in 100 μL of N,N-dimethylformamide (Sigma), then 2 mL of 0.1% Fast blue BB salt (Sigma) solution was added and ALP staining was performed at 37° C. for 30 minutes. Osteogenic activity was confirmed by the intensity of staining, and it was evaluated that the darker the staining, the higher the expression of ALP.

Ibsp = assay: qRT-PCR of osteogenic marker Ibsp in osteoblasts; details: 5 days differentiation, siRNA 30 nM, plasmid 1 μg/mL, bongkrekic acid 40 μM, normalized to 18S rRNA, versus respective control
Experimental: as §1, §2

Molecule	formation of donut-shaped mitochondria (confocal images, FIGS. 1A to 1C) (osteoblast mitochondria)	mitochondrial fission (confocal images, FIGS. 1A to 1C) (osteoblast mitochondria)	mitochondrial fission (quantitative analysis, Zeiss Zen 3.1, FIGS. 1D and 1E) (osteoblast mitochondria)	number of donut-shaped mitochondria (quantitative analysis, FIGS. 1D and 1E) (osteoblast mitochondria)	expression of Alp1 (qRT-PCR) (Alp1)	degree of ALP staining (osteogenic activity) (osteoblasts)	expression of Ibsp (qRT-PCR) (Ibsp)
CO[C@H](C/C=C\C=C\CC/C=C/C[C@H](C)/C=C/C(=C\C(=O)O)CC(=O)O)/C(C)=C\C=C(/C)C(=O)O [bongkrekic acid]	increased compared to the control	increased compared to the control	significantly increased	significantly increased	significantly increased	stronger compared to the respective controls	significantly increased
siBax: siRNA of Bax (Bcl-2-associated X); Bioneer ID 12028-1, SEQ ID NO 5 and 6 (chain 1 GCUGCAGAGGAUGAUUGCUTT; chain 2 AGCAAUCAUCCUCUGCAGCTT; chemistry not given here)	–	–	–	–	–	weaker compared to the respective controls	–
siFis1: siRNA inhibiting expression of the Fis1 gene; Bioneer ID 66437-1, SEQ ID NO 3 and 4 (chain 1 CUGAUUGAUAAGGCCAUGAUU; chain 2 UCAUGGCCUUAUCAAUCAGUU; chemistry not given here)	significantly reduced compared to the control	significantly reduced compared to the control	significantly reduced	significantly reduced	significantly decreased	weaker compared to the respective controls	significantly decreased
siOpa1: siRNA inhibiting expression of the Opa1 gene; Bioneer ID 74143-1, SEQ ID NO 1 and 2 (chain 1 GUGUUCACAACGAAACCAAUU; chain 2 UUGGUUUCGUUGUGAACACUU; chemistry not given here)	increased compared to the control	increased compared to the control	significantly increased	significantly increased	significantly increased	stronger compared to the respective controls	significantly increased
